Results reported in article PMC3076939 (Biochemistry, 2011).

What was measured:
[1] = tested on: C-terminal processing of PHI(1–27); assay type: biochemical, mouse; settings: PHI(1–27) with membrane lysate 1 mg/mL in PBS, 37 °C, 15 min, LC-MS; o-phenanthroline 1 mM, phosphoamidon 10 µM
[2] = target: DPP4 (Mus musculus, UniProt P28843); assay type: biochemical
[3] = plasma; settings: cited from earlier work
[4] = human plasma; settings: cited from earlier work

DPP4, sequence (P28843 whole entry): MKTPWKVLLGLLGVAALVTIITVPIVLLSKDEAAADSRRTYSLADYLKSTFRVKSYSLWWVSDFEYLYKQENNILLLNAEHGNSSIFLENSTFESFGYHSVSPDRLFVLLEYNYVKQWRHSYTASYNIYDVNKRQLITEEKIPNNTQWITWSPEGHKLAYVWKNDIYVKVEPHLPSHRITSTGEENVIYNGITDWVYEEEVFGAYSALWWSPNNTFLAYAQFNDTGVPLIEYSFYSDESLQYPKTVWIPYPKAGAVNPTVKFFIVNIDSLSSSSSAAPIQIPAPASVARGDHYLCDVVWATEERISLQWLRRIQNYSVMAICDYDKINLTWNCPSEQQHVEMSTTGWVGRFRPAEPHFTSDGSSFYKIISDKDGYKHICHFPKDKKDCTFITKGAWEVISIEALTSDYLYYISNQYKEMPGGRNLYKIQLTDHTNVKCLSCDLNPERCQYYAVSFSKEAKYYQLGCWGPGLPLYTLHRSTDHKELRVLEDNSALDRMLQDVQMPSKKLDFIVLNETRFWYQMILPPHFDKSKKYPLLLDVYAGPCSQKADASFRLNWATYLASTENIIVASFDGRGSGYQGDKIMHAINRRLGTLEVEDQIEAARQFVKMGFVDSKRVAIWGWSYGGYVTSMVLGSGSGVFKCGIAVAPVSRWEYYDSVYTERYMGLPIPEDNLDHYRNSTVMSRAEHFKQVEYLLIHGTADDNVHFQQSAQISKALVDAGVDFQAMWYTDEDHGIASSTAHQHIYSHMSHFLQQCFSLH

| Molecule | effect on C-terminal processing of PHI(1–27) (PHI(1–22) production) [1] | other results |
| --- | --- | --- |
| c1cnc2c(c1)ccc1cccnc12 [1,10-phenanthroline] | reducing the production of PHI(1–22) | – |
| CNC(=O)[C@H](Cc1c[nH]c2ccccc12)NC(=O)[C@@H](CC(=O)NO)CC(C)C [GM6001] | no impact | – |
| O=S(=O)(F)Cc1ccccc1 [PMSF, phenylmethylsulfonyl fluoride] | – | inhibition of the production of PHI(3–27) (N-terminal processing) [2]: strongly inhibited the production of PHI(3–27) |
| CC(C)C[C@H](NP(=O)(O)O[C@@H]1O[C@@H](C)[C@H](O)[C@@H](O)[C@H]1O)C(=O)N[C@@H](Cc1c[nH]c2ccccc12)C(=O)O [phosphoramidon] | no impact | – |
| HAEGTFTSDVSSYLEGQAAKEFIAWLVKGRG-CONH2 | – | fragment found [3]: GLP-1(9–36), major; fragment found [4]: GLP-1(9–36) |
